{
  "source": "the NIST ThermoML archive (doi:10.1016/j.tca.2008.02.008)",
  "key": {"[1]": {"conditions": "298.15 K; 101.33 kPa; Liquid; Vibrating tube method"}, "[2]": {"experiment": "refractive index (Na D-line) (dimensionless)", "conditions": "298.15 K; 101.33 kPa; Liquid; refractometer"}, "[3]": {"experiment": "excess molar enthalpy (molar enthalpy of mixing); xn = mol fraction of the nth substance listed", "conditions": "298.15 K, 101 kPa, Liquid, Flow calorimetry"}},
  "note": "Numbers after ± are expanded uncertainties.",
  "data": [
    {"molecule": "CC(Cl)CCl", "note": "(stereo not given) [1,2-dichloropropane]", "values": [
      {"measurement": "mass density", "setting": "[1]", "result": "1148.95 ± 0.46", "unit": "kg/m3"},
      {"measurement": "refractive index", "setting": "[2]", "result": "1.43653 ± 0.00023"}
    ]},
    {"molecule": "CCCCOCCOC(C)=O", "note": "[2-butoxyethyl acetate]", "values": [
      {"measurement": "mass density", "setting": "[1]", "result": "935.12 ± 0.3", "unit": "kg/m3"},
      {"measurement": "refractive index", "setting": "[2]", "result": "1.41183 ± 0.00023"}
    ]},
    {"molecule": "CCCCOCCOC(C)=O", "note": "[2-butoxyethyl acetate] + CC(Cl)CCl", "values": [
      {"measurement": "excess molar enthalpy", "setting": "[3]; x2 = 0.0659", "result": "-0.0225 ± 0.000478", "unit": "kcal/mol"},
      {"measurement": "excess molar enthalpy", "setting": "[3]; x2 = 0.0985", "result": "-0.0299 ± 0.000502", "unit": "kcal/mol"},
      {"measurement": "excess molar enthalpy", "setting": "[3]; x2 = 0.1611", "result": "-0.0499 ± 0.000621", "unit": "kcal/mol"},
      {"measurement": "excess molar enthalpy", "setting": "[3]; x2 = 0.1911", "result": "-0.0545 ± 0.000645", "unit": "kcal/mol"},
      {"measurement": "excess molar enthalpy", "setting": "[3]; x2 = 0.2486", "result": "-0.0684 ± 0.000741", "unit": "kcal/mol"},
      {"measurement": "excess molar enthalpy", "setting": "[3]; x2 = 0.3032", "result": "-0.079 ± 0.000813", "unit": "kcal/mol"},
      {"measurement": "excess molar enthalpy", "setting": "[3]; x2 = 0.3549", "result": "-0.08791 ± 0.00086", "unit": "kcal/mol"},
      {"measurement": "excess molar enthalpy", "setting": "[3]; x2 = 0.4041", "result": "-0.09455 ± 0.000908", "unit": "kcal/mol"},
      {"measurement": "excess molar enthalpy", "setting": "[3]; x2 = 0.4509", "result": "-0.09775 ± 0.000932", "unit": "kcal/mol"},
      {"measurement": "excess molar enthalpy", "setting": "[3]; x2 = 0.4955", "result": "-0.1004 ± 0.000956", "unit": "kcal/mol"},
      {"measurement": "excess molar enthalpy", "setting": "[3]; x2 = 0.5585", "result": "-0.1023 ± 0.00098", "unit": "kcal/mol"},
      {"measurement": "excess molar enthalpy", "setting": "[3]; x2 = 0.5982", "result": "-0.1015 ± 0.00098", "unit": "kcal/mol"},
      {"measurement": "excess molar enthalpy", "setting": "[3]; x2 = 0.6545", "result": "-0.09778 ± 0.000932", "unit": "kcal/mol"},
      {"measurement": "excess molar enthalpy", "setting": "[3]; x2 = 0.7073", "result": "-0.0914 ± 0.000884", "unit": "kcal/mol"},
      {"measurement": "excess molar enthalpy", "setting": "[3]; x2 = 0.7568", "result": "-0.0831 ± 0.000837", "unit": "kcal/mol"},
      {"measurement": "excess molar enthalpy", "setting": "[3]; x2 = 0.8035", "result": "-0.0727 ± 0.000765", "unit": "kcal/mol"},
      {"measurement": "excess molar enthalpy", "setting": "[3]; x2 = 0.8615", "result": "-0.0569 ± 0.000669", "unit": "kcal/mol"},
      {"measurement": "excess molar enthalpy", "setting": "[3]; x2 = 0.9022", "result": "-0.0431 ± 0.000574", "unit": "kcal/mol"},
      {"measurement": "excess molar enthalpy", "setting": "[3]; x2 = 0.9531", "result": "-0.0226 ± 0.000478", "unit": "kcal/mol"}
    ]},
    {"molecule": "CCOCCOC(C)=O", "note": "[2-ethoxyethyl ethanoate]", "values": [
      {"measurement": "mass density", "setting": "[1]", "result": "967.36 ± 1", "unit": "kg/m3"},
      {"measurement": "refractive index", "setting": "[2]", "result": "1.40311 ± 0.00042"}
    ]},
    {"molecule": "CCOCCOC(C)=O", "note": "[2-ethoxyethyl ethanoate] + CC(Cl)CCl", "values": [
      {"measurement": "excess molar enthalpy", "setting": "[3]; x2 = 0.0532", "result": "-0.0175 ± 0.000454", "unit": "kcal/mol"},
      {"measurement": "excess molar enthalpy", "setting": "[3]; x2 = 0.1067", "result": "-0.0303 ± 0.000502", "unit": "kcal/mol"},
      {"measurement": "excess molar enthalpy", "setting": "[3]; x2 = 0.1585", "result": "-0.0476 ± 0.000598", "unit": "kcal/mol"},
      {"measurement": "excess molar enthalpy", "setting": "[3]; x2 = 0.2088", "result": "-0.0594 ± 0.000669", "unit": "kcal/mol"},
      {"measurement": "excess molar enthalpy", "setting": "[3]; x2 = 0.2575", "result": "-0.0693 ± 0.000741", "unit": "kcal/mol"},
      {"measurement": "excess molar enthalpy", "setting": "[3]; x2 = 0.3049", "result": "-0.0772 ± 0.000789", "unit": "kcal/mol"},
      {"measurement": "excess molar enthalpy", "setting": "[3]; x2 = 0.351", "result": "-0.08413 ± 0.000837", "unit": "kcal/mol"},
      {"measurement": "excess molar enthalpy", "setting": "[3]; x2 = 0.3957", "result": "-0.08934 ± 0.000884", "unit": "kcal/mol"},
      {"measurement": "excess molar enthalpy", "setting": "[3]; x2 = 0.4605", "result": "-0.09474 ± 0.000908", "unit": "kcal/mol"},
      {"measurement": "excess molar enthalpy", "setting": "[3]; x2 = 0.5022", "result": "-0.09634 ± 0.000932", "unit": "kcal/mol"},
      {"measurement": "excess molar enthalpy", "setting": "[3]; x2 = 0.5428", "result": "-0.09677 ± 0.000932", "unit": "kcal/mol"},
      {"measurement": "excess molar enthalpy", "setting": "[3]; x2 = 0.6017", "result": "-0.09524 ± 0.000932", "unit": "kcal/mol"},
      {"measurement": "excess molar enthalpy", "setting": "[3]; x2 = 0.6583", "result": "-0.09261 ± 0.000908", "unit": "kcal/mol"},
      {"measurement": "excess molar enthalpy", "setting": "[3]; x2 = 0.6949", "result": "-0.08788 ± 0.00086", "unit": "kcal/mol"},
      {"measurement": "excess molar enthalpy", "setting": "[3]; x2 = 0.748", "result": "-0.0794 ± 0.000813", "unit": "kcal/mol"},
      {"measurement": "excess molar enthalpy", "setting": "[3]; x2 = 0.7991", "result": "-0.0688 ± 0.000741", "unit": "kcal/mol"},
      {"measurement": "excess molar enthalpy", "setting": "[3]; x2 = 0.8485", "result": "-0.0565 ± 0.000669", "unit": "kcal/mol"},
      {"measurement": "excess molar enthalpy", "setting": "[3]; x2 = 0.896", "result": "-0.0419 ± 0.000574", "unit": "kcal/mol"},
      {"measurement": "excess molar enthalpy", "setting": "[3]; x2 = 0.9569", "result": "-0.0198 ± 0.000454", "unit": "kcal/mol"}
    ]},
    {"molecule": "COCCOC(C)=O", "note": "[2-methoxyethyl ethanoate]", "values": [
      {"measurement": "mass density", "setting": "[1]", "result": "999.76 ± 0.3", "unit": "kg/m3"},
      {"measurement": "refractive index", "setting": "[2]", "result": "1.39988 ± 0.00023"}
    ]},
    {"molecule": "COCCOC(C)=O", "note": "[2-methoxyethyl ethanoate] + CC(Cl)CCl", "values": [
      {"measurement": "excess molar enthalpy", "setting": "[3]; x2 = 0.0464", "result": "-0.0141 ± 0.00043", "unit": "kcal/mol"},
      {"measurement": "excess molar enthalpy", "setting": "[3]; x2 = 0.0936", "result": "-0.0253 ± 0.000478", "unit": "kcal/mol"},
      {"measurement": "excess molar enthalpy", "setting": "[3]; x2 = 0.1401", "result": "-0.0365 ± 0.00055", "unit": "kcal/mol"},
      {"measurement": "excess molar enthalpy", "setting": "[3]; x2 = 0.2084", "result": "-0.0512 ± 0.000621", "unit": "kcal/mol"},
      {"measurement": "excess molar enthalpy", "setting": "[3]; x2 = 0.253", "result": "-0.06 ± 0.000693", "unit": "kcal/mol"},
      {"measurement": "excess molar enthalpy", "setting": "[3]; x2 = 0.2969", "result": "-0.0674 ± 0.000717", "unit": "kcal/mol"},
      {"measurement": "excess molar enthalpy", "setting": "[3]; x2 = 0.3402", "result": "-0.0748 ± 0.000765", "unit": "kcal/mol"},
      {"measurement": "excess molar enthalpy", "setting": "[3]; x2 = 0.4038", "result": "-0.08196 ± 0.000813", "unit": "kcal/mol"},
      {"measurement": "excess molar enthalpy", "setting": "[3]; x2 = 0.4454", "result": "-0.08535 ± 0.000837", "unit": "kcal/mol"},
      {"measurement": "excess molar enthalpy", "setting": "[3]; x2 = 0.5066", "result": "-0.08855 ± 0.00086", "unit": "kcal/mol"},
      {"measurement": "excess molar enthalpy", "setting": "[3]; x2 = 0.5467", "result": "-0.08953 ± 0.000884", "unit": "kcal/mol"},
      {"measurement": "excess molar enthalpy", "setting": "[3]; x2 = 0.6056", "result": "-0.08855 ± 0.00086", "unit": "kcal/mol"},
      {"measurement": "excess molar enthalpy", "setting": "[3]; x2 = 0.6442", "result": "-0.0864 ± 0.00086", "unit": "kcal/mol"},
      {"measurement": "excess molar enthalpy", "setting": "[3]; x2 = 0.701", "result": "-0.0811 ± 0.000813", "unit": "kcal/mol"},
      {"measurement": "excess molar enthalpy", "setting": "[3]; x2 = 0.7566", "result": "-0.0746 ± 0.000765", "unit": "kcal/mol"},
      {"measurement": "excess molar enthalpy", "setting": "[3]; x2 = 0.811", "result": "-0.0636 ± 0.000693", "unit": "kcal/mol"},
      {"measurement": "excess molar enthalpy", "setting": "[3]; x2 = 0.8466", "result": "-0.0549 ± 0.000645", "unit": "kcal/mol"},
      {"measurement": "excess molar enthalpy", "setting": "[3]; x2 = 0.8991", "result": "-0.0402 ± 0.000574", "unit": "kcal/mol"},
      {"measurement": "excess molar enthalpy", "setting": "[3]; x2 = 0.9505", "result": "-0.0217 ± 0.000454", "unit": "kcal/mol"}
    ]}
  ]
}
